# From patent publication US20260200939A1, “MOLECULAR GLUE DEGRADER COMPOUNDS AND USES THEREOF” (Novartis AG, priority 2022, published 2026)
# Target: T1, CDK4 (Homo sapiens, UniProt P11802)
# T1 construct: endogenous in cells; host or cells: C33A
# Assay: CDK4 Degradation Assay, Western blotting
# Type: cell-based
# Description: C33A cells were purchased from American Type Culture Collection (ATCC) and were cultured in Dulbecco's Modified Eagle Medium (DMEM) containing 10% (v/v) fetal bovine serum (FBS) and maintained at 37° C. with 5% CO2. 22RV1 cells were purchased from the ATCC and were cultured in RPMI-1640 Medium containing 10% (v/v) FBS and maintained at 37° C. with 5% CO2. HEK293T cells were obtained from the UC Berkeley Cell Culture Facility and were cultured in DMEM containing 10% (v/v) FBS and maintained at 37° C. with 5% CO2. K562 cells were obtained from the UC Berkeley Cell Culture Facility and were cultured in Iscove's Modified Dulbecco's Medium (IMDM) containing 10% (v/v) FBS and maintained at 37° C. with 5% CO2. MV-4-11 cells were obtained from the ATCC and were cultured in IMDM containing 10% (v/v) FBS and maintained at 37° C. with 5% CO2. A549 cells were obtained from the ATCC and were cultured in F-12K Medium containing 10% (v/v) FBS and maintained at 37° C. with 5% CO2. Mino cells were obtained from the ATCC and were cultured in RPMI-1640 Medium containing 10% (v/v) FBS and maintained at 37° C. with 5% CO2. LNCaP cells were obtained from the ATCC and were cultured in RPMI-1640 Medium containing 10% (v/v) FBS and maintained at 37° C. with 5% CO2. Unless otherwise specified, all cell culture materials were purchased from Gibco. It is not known whether HEK293T cells are from male or female origin.
# Cells were washed twice with cold PBS, scraped, and pelleted by centrifugation (700 g, 5 min, 4° C.). Pellets were resuspended in PBS, sonicated, clarified by centrifugation (12,000 g, 10 min, 4° C.), and lysate was transferred to new low-adhesion microcentrifuge tubes. Proteome concentrations were determined using BCA assay and lysate was diluted to appropriate working concentrations.
# Proteins were resolved by SDS/PAGE and transferred to nitrocellulose membranes using the Trans-Blot Turbo transfer system (Bio-Rad). Membranes were blocked with 5% BSA in Tris-buffered saline containing Tween 20 (TBS-T) solution for 30 min at RT, washed in TBS-T, and probed with primary antibody diluted in recommended diluent per manufacturer overnight at 4° C. After 3 washes with TBS-T, the membranes were incubated in the dark with IR680- or IR800-conjugated secondary antibodies at 1:10,000 dilution in 5% BSA in TBS-T at RT for 1 h. After 3 additional washes with TBST, blots were visualized using an Odyssey Li-Cor fluorescent scanner. The membranes were stripped using ReBlot Plus Strong Antibody Stripping Solution (EMD Millipore) when additional primary antibody incubations were performed. Antibodies used in this study were CDK4 (Abcam ab108357), Vinculin (Abcam ab129002), GAPDH (Cell Signaling Technology 14C10), RNF126 (Santa Cruz Biotechnology sc-376005), BRD4 (Abcam ab128874), Beta Actin (Cell Signaling Technology 13E5), PDE5 (Abcam ab259945), AR-V7 (Abcam ab273500), c-Abl (Santa Cruz Biotechnology sc-23), SMARCA2 (Abcam ab240648), LRRK2 (Abcam ab133474), BTK (Cell Signaling Technology D3H5), Androgen Receptor (Abcam ab133273).
row,Compound,DC50
1,"COc1ccc(C(=O)/C=C/C(=O)N2CCN(c3ccc(Nc4ncc5cc(C(=O)N(C)C)n(C6CCCC6)c5n4)nc3)CC2)c(Cl)c1 [Compound 268, (E)-2-((5-(4-(4-(2-chloro-4-methoxyphenyl)-4-oxobut-2-enoyl)piperazin-1-yl)pyridin-2-yl)amino)-7-cyclopentyl-N,N-dimethyl-7H-pyrrolo[2,3-d]pyrimidine-6-carboxamide]",> 10 µM
2,"Cc1ccccc1C(=O)/C=C/C(=O)N1CCN(c2ccc(Nc3ncc4cc(C(=O)N(C)C)n(C5CCCC5)c4n3)nc2)CC1 [Compound 263, (E)-7-cyclopentyl-N,N-dimethyl-2-((5-(4-(4-oxo-4-(o-tolyl)but-2-enoyl)piperazin-1-yl)pyridin-2-yl)amino)-7H-pyrrolo[2,3-d]pyrimidine-6-carboxamide]",> 10 µM
3,"Cc1ccc(C(=O)/C=C/C(=O)N2CCN(c3ccc(Nc4ncc5cc(C(=O)N(C)C)n(C6CCCC6)c5n4)nc3)CC2)cc1 [Compound 262, (E)-7-cyclopentyl-N,N-dimethyl-2-((5-(4-(4-oxo-4-(p-tolyl)but-2-enoyl)piperazin-1-yl)pyridin-2-yl)amino)-7H-pyrrolo[2,3-d]pyrimidine-6-carboxamide]",1 to 10 µM
4,"COc1ccc(C(=O)/C=C/C(=O)N2CCCN(c3ccc(Nc4ncc5cc(C(=O)N(C)C)n(C6CCCC6)c5n4)nc3)CC2)cc1 [Compound 275, (E)-7-cyclopentyl-2-((5-(4-(4-(4-methoxyphenyl)-4-oxobut-2-enoyl)-1,4-diazepan-1-yl)pyridin-2-yl)amino)-N,N-dimethy1-7H-pyrrolo[2,3-d]pyrimidine-6-carboxamide]",1 to 10 µM
5,"COc1ccc(C(=O)/C=C/C(=O)N(C)CCN(C)c2ccc(Nc3ncc4cc(C(=O)N(C)C)n(C5CCCC5)c4n3)nc2)cc1 [Compound 272, (E)-7-cyclopentyl-2-((5-((2-(4-(4-methoxyphenyl)-N-methyl-4-oxobut-2-enamido)ethyl)(methyl)amino)pyridin-2-yl)amino)-N,N-dimethyl-7H-pyrrolo[2,3-d]pyrimidine-6-carboxamide]",> 10 µM
6,"COc1ccc(C(=O)/C=C/C(=O)N2CCN(c3ccc(Nc4ncc5cc(C(=O)N(C)C)n(C6CCCC6)c5n4)nc3)C[C@H]2C)cc1 [Compound 273, (R,E)-7-cyclopentyl-2-((5-(4-(4-(4-methoxyphenyl)-4-oxobut-2-enoyl)-3-methylpiperazin-1-yl)pyridin-2-yl)amino)-N,N-dimethyl-7H-pyrrolo[2,3-d]pyrimidine-6-carboxamide]",1 to 10 µM
7,"CN(C)C(=O)c1cc2cnc(Nc3ccc(N4CCN(C(=O)/C=C/C(=O)c5ccccc5Br)CC4)cn3)nc2n1C1CCCC1 [Compound 159, (E)-2-((5-(4-(4-(2-bromophenyl)-4-oxobut-2-enoyl)piperazin-1-yl)pyridin-2-yl)amino)-7-cyclopentyl-N,N-dimethyl-7H-pyrrolo[2,3-d]pyrimidine-6-carboxamide]",> 10 µM
8,"COc1ccc(C(=O)/C=C/C(=O)N2CCN(c3ccc(Nc4ncc5cc(C(=O)N(C)C)n(C6CCCC6)c5n4)nc3)[C@@H](C)C2)cc1 [Compound 274, (S,E)-7-cyclopenty1-2-((5-(4-(4-(4-methoxyphenyl)-4-oxobut-2-enoyl)-2-methylpiperazin-1-yl)pyridin-2-yl)amino)-N,N-dimethyl-7H-pyrrolo[2,3-d]pyrimidine-6-carboxamide]",1 to 10 µM
9,"CN(C)C(=O)c1cc2cnc(Nc3ccc(N4CCN(C(=O)/C=C/C(=O)c5ccc(C#N)cc5)CC4)cn3)nc2n1C1CCCC1 [Compound 267, (E)-2-((5-(4-(4-(4-cyanophenyl)-4-oxobut-2-enoyl)piperazin-1-yl)pyridin-2-yl)amino)-7-cyclopentyl-N,N-dimethyl-7H-pyrrolo[2,3-d]pyrimidine-6-carboxamide]",> 10 µM
10,"CN(C)C(=O)c1cc2cnc(Nc3ccc(N4CCN(C(=O)/C=C/C(=O)c5ccccc5Cl)CC4)cn3)nc2n1C1CCCC1 [Compound 158, (E)-2-((5-(4-(4-(2-chlorophenyl)-4-oxobut-2-enoyl)piperazin-1-yl)pyridin-2-yl)amino)-7-cyclopentyl-N,N-dimethyl-7H-pyrrolo[2,3-d]pyrimidine-6-carboxamide]",> 10 µM
11,"COc1ccc(C(=O)/C=C(\C#N)C(=O)N2CCN(c3ccc(Nc4ncc5cc(C(=O)N(C)C)n(C6CCCC6)c5n4)nc3)CC2)cc1 [Compound 256, (E)-2-((5-(4-(2-cyano-4-(4-methoxyphenyl)-4-oxobut-2-enoyl)piperazin-1-yl)pyridin-2-yl)amino)-7-cyclopentyl-N,N-dimethyl-7H-pyrrolo[2,3-d]pyrimidine-6-carboxamide]",> 10 µM

# Further lines, results first:
row,DC50,Compound
1,> 10 µM,"CN(C)C(=O)c1cc2cnc(Nc3ccc(N4CCN(C(=O)/C=C/C(=O)c5cccc(Br)c5)CC4)cn3)nc2n1C1CCCC1 [Compound 259, (E)-2-((5-(4-(4-(3-bromophenyl)-4-oxobut-2-enoyl)piperazin-1-yl)pyridin-2-yl)amino)-7-cyclopentyl-N,N-dimethyl-7H-pyrrolo[2,3-d]pyrimidine-6-carboxamide]"
2,> 10 µM,"CN(C)C(=O)c1cc2cnc(Nc3ccc(N4CCN(C(=O)/C=C/C(=O)c5ccc6c(c5)OCCO6)CC4)cn3)nc2n1C1CCCC1 [Compound 255, (E)-7-cyclopentyl-2-((5-(4-(4-(2,3-dihydrobenzo[b][1,4]dioxin-6-yl)-4-oxobut-2-enoyl)piperazin-1-yl)pyridin-2-yl)amino)-N,N-dimethyl-7H-pyrrolo[2,3-d]pyrimidine-6-carboxamide]"
3,> 10 µM,"CN(C)C(=O)c1cc2cnc(Nc3ccc(N4CCN(C(=O)/C=C/C(=O)c5ccc6c(c5)CCO6)CC4)cn3)nc2n1C1CCCC1 [Compound 261, (E)-7-cyclopentyl-2-((5-(4-(4-(2,3-dihydrobenzofuran-5-yl)-4-oxobut-2-enoyl)piperazin-1-yl)pyridin-2-yl)amino)-N,N-dimethyl-7H-pyrrolo[2,3-d]pyrimidine-6-carboxamide]"
4,> 10 µM,"COc1ccc(C(=O)/C=C/C(=O)N2CCN(c3ccc(Nc4ncc5cc(C(=O)N(C)C)n(C6CCCC6)c5n4)nc3)CC2)cc1F [Compound 266, (E)-7-cyclopentyl-2-((5-(4-(4-(3-fluoro-4-methoxyphenyl)-4-oxobut-2-enoyl)piperazin-1-yl)pyridin-2-yl)amino)-N,N-dimethyl-7H-pyrrolo[2,3-d]pyrimidine-6-carboxamide]"
5,> 10 µM,"CN(C)C(=O)c1cc2cnc(Nc3ccc(N4CCN(C(=O)/C=C/C(=O)c5ccc6c(c5)OCC6)CC4)cn3)nc2n1C1CCCC1 [Compound 260, (E)-7-cyclopentyl-2-((5-(4-(4-(2,3-dihydrobenzofuran-6-yl)-4-oxobut-2-enoyl)piperazin-1-yl)pyridin-2-yl)amino)-N,N-dimethyl-7H-pyrrolo[2,3-d]pyrimidine-6-carboxamide]"
6,> 10 µM,"CN(C)C(=O)c1cc2cnc(Nc3ccc(N4CCN(C(=O)/C=C/C(=O)c5ccc6c(c5)NC(=O)CO6)CC4)cn3)nc2n1C1CCCC1 [Compound 257, (E)-7-cyclopentyl-N,N-dimethyl-2-((5-(4-(4-oxo-4-(3-oxo-3,4-dihydro-2H-benzo[b][1,4]oxazin-6-yl)but-2-enoyl)piperazin-1-yl)pyridin-2-yl)amino)-7H-pyrrolo[2,3-d]pyrimidine-6-carboxamide]"
